Experimental data taken from US11529359B2, “Use of GABAA receptor modulators for treatment of itch” (UNIVERSITÄT ZÜRICH, priority 2016, dated 2022).

Tests used:
histamine-induced itch = histamine-induced itch (cheek injection) in wild-type mice; assay type: in vivo, wild-type C57BL6/J mice; conditions: per oral 0.01, 0.03, 0.1, 1 and 3 mg/kg 90 min before 100 μg histamine; 30 min
Description: (§1) Acute itch was assessed in mice that received intradermal microinjections of pruritogens or 0.9% saline into the right cheek, which had been shaved at least one day before the experiment. In two sets of experiments that addressed the contribution of GABAARs in primary and secondary pruritoceptors, pruritogens were injected in the right thigh (FIG. 17). Before injection, mice were acclimatized to a 15 cm diameter cylindrical enclosure for more than 30 min with cage bedding on the ground. Background white noise generated by a radio in the room at ambient volume was applied to prevent auditory distraction. A 30 gauge needle was inserted bevel-up and pushed 5 mm horizontally into the skin beyond the point of insertion, before injection of the pruritogen (in a total volume of 10 μl). No anesthesia was used. Correct injection was confirmed by the appearance of a slightly domed bulla upon injection. […] Videos were analyzed off-line. Scratching of the hind paw directed to the ipsilateral cheek was counted in bouts, with one scratching bout defined as an instance when the mouse lifted its paw to scratch until it returned the paw to the cage floor. In case of experiments in which the pruritogen was injected in the skin of the thigh, the time spent biting the injected skin area was counted in s/min as a measure of itch.

chloroquine-induced itch [1] = test: chloroquine-induced itch (cheek injection) in wild-type mice; assay type: in vivo, wild-type C57BL6/J mice; conditions: p.o.; wild-type mice; 100 μg chloroquine
Description: as §1

[2] = test system: benzodiazepine binding site of GABAARs; test: α-methyl 5-HT-induced itch in HRRR mice (α2, α3, α5 GABAARs benzodiazepine-insensitive); assay type: in vivo; conditions: 1 mg/kg p.o.; 20 μg α-methyl 5-HT
Description: as §1

[3] = test system: contact dermatitis-induced chronic itch; test: oxazolone contact dermatitis model of chronic itch in wild-type mice; assay type: in vivo, wild-type C57BL6/J mice
Description: Thus, TPA023B is, in accordance with the other findings of the inventors, suitable as an antipruritic substance.
This was independent of the treatment they received from day 7 to day 27.
The inventors sought to confirm the antipruritic efficacy of α2 and α3 GABAA receptor agonists against contact dermatitis-induced chronic itch. To this end, N-desmethyl clobazam, a benzodiazepine with improved activity at α2 versus α1 was assessed for its antipruritic effects (Jensen et al. PLoS One. 2014 Feb. 12; 9(2):e88456.).
Chronic itch was investigated in the contact dermatitis model (Kido-Nakahara, M., et al. J Clin Invest, 2014, 124, 2683-2695). Mice were treated once with 10% oxazolone in acetone/olive oil (4:1 v/v) on the shaved nape of the neck (100 μl) on day 0. After a resting period of 7 days, mice were treated with 1% oxazolone in acetone/olive oil (4:1 v/v) on the nape of the neck (100 μl) every other day for 10 days. On the day of the experiment, mice were injected with drug or vehicle i.p. under short and light isoflurane anesthesia. […]

locomotor activity = test: open field test, locomotor activity / sedation; assay type: in vivo, wild-type mice
Description: After injection, the mice were placed in an open field arena and their activity was recorded for one hour starting one hour after injection.
(§2) Locomotor activity, muscle relaxant effects and motor coordination were assessed as described previously (Ralvenius, W. T., Benke, D., Acuña, M. A., Rudolph, U. & Zeilhofer, H. U. Nature Communications, 2015, 6). […] Motor coordination was assessed with a rotarod accelerating from 4 rpm to 40 rpm within 5 min. […] Fifteen measurements were taken per mouse. To assess muscle relaxation, mice were placed with their forepaws onto a metal horizontal wire placed 20 cm above ground.

muscle relaxation = test: horizontal wire test (muscle relaxation); assay type: in vivo, mice; conditions: p.o., 60-120 min after administration
Description: as §2

motor coordination = test: rotarod assay (motor coordination); assay type: in vivo, mice; conditions: p.o., 60 min after administration
Description: as §2

α1 GABAARs = target: T1, α1 GABAARs (Homo sapiens, UniProt P14867+P18507); test: GABA-evoked currents, recombinant GABAARs in HEK293 cells (α1); assay type: cell-based; conditions: HEK293 cells transiently transfected
T1 construct: expressed in transfected cells; host or cells: HEK293 cells (ATCC), transient transfection
Source text: (§3) HEK293 cells were transfected using lipofectamine LTX (Dugue, G. P., et al. Neuron, 2009, 61, 126-139). To ensure expression of the γ2 subunit (required for modulation of GABAARs by BDZs) in all recorded cells, the inventors transfected cells with a plasmid expressing the γ2 subunit plus eGFP from an IRES, and only selected eGFP-positive cells for recordings. The transfection mixture contained (in μg): 1 α1, 1 β2, 3 γ2/eGFP (used as a marker of successful transfection) or 1 αx, 1 β3, 3 γ2/eGFP in case of α2, α3, or α5GABAARs. Recordings were made 18-36 hrs after transfection. Whole-cell patch-clamp recordings of GABA-evoked currents were made at room temperature (20-24° C.) and at a holding potential of −60 mV. Recording electrodes were filled with solution containing (in mM): 120 CsCl, 10 EGTA, 10 HEPES (pH 7.40), 4 MgCl2, 0.5 GTP and 2 ATP. The external solution contained (in mM): 150 NaCl, 10 KCl, 2.0 CaCl2, 1.0 MgCl2, 10 HEPES (pH 7.4), and 10 glucose. GABA was applied to the recorded cell using a manually controlled pulse (4-6 s) of a low sub-saturating GABA concentration (ECS). ECs values of GABA were determined for all subunit combinations analyzed. […] Imax was determined as the average maximal current elicited by a concentration of 1 mM GABA. […]

GABAARs = test: recombinant GABAARs in HEK293 cells, direct activation in the absence of GABA; assay type: cell-based
Source text: as §3

[4] = target: T2, α2GABAARs with H→R point mutation in the α2 subunit (Homo sapiens, UniProt P18507+P47869, H129R); test: positive allosteric modulation of H→R point-mutated α2GABAARs in HEK 293 cells; assay type: cell-based; conditions: 1 μM
T2 construct: expressed in transfected cells; host or cells: HEK 293 cells, transient transfection
Source text: as §3

chloroquine-induced itch [5] = test: chloroquine-induced itch (thigh injection), intrathecal drug, wild-type mice; assay type: in vivo; conditions: 0.3 mg/kg intrathecal; 100 μg chloroquine into right thigh
Description: as §1

α2GABAARs = test: chloroquine-induced biting (thigh injection) in hoxB8-α2−/−, α2fl/fl and α2 (H→R) mice; assay type: in vivo; conditions: 1 mg/kg p.o., 100 μg chloroquine thigh
Description: as §1

T2 sequence (P47869 29-451 H129R): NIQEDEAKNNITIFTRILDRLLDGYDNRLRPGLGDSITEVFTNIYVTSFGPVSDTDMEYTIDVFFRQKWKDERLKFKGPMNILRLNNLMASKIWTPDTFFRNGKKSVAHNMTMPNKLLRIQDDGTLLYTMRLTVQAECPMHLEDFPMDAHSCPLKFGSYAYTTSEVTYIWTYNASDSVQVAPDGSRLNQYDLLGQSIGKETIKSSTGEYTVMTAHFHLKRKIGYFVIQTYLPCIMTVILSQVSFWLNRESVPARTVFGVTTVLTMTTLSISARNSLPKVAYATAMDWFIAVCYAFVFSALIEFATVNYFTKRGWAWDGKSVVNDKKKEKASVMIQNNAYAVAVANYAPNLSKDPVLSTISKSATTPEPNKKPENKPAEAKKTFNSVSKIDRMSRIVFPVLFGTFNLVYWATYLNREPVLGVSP
T2 sequence (P28472 26-473 partner): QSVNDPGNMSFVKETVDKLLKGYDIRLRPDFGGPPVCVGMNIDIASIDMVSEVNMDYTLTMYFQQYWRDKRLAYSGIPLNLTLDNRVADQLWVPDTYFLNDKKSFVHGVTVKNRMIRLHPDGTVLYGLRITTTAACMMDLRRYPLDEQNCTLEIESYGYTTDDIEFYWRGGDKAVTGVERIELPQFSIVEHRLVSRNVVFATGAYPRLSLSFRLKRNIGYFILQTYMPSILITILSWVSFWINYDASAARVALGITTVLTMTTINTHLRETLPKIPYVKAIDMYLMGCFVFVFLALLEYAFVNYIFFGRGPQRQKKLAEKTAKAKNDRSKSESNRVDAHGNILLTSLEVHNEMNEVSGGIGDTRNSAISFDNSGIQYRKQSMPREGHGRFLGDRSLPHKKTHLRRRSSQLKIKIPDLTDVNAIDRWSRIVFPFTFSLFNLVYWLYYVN
T2 sequence (P18507 40-467 limits assumed): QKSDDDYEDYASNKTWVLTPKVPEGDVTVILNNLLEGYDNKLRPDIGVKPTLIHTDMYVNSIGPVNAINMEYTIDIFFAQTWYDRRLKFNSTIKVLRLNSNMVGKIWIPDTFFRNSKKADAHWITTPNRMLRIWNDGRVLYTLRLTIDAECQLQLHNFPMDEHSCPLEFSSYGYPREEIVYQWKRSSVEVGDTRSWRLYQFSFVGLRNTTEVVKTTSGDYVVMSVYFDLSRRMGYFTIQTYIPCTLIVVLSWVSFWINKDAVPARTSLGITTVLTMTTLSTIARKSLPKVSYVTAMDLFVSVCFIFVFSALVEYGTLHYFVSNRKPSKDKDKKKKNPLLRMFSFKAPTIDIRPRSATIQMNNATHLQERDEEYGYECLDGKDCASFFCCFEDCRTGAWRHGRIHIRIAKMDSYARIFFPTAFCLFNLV
T1 sequence (P14867 28-456): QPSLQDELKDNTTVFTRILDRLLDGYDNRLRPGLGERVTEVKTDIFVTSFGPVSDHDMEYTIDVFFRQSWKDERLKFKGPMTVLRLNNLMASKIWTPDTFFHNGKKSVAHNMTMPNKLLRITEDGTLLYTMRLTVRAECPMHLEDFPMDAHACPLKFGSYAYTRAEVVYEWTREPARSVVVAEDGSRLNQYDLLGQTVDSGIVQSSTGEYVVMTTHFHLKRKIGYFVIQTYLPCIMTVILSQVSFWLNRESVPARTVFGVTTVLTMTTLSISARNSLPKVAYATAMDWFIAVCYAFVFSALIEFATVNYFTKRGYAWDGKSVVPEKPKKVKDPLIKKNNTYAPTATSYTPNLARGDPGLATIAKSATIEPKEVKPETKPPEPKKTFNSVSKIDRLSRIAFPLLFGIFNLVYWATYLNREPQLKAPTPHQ
T1 sequence (P47870 25-512 partner limits assumed): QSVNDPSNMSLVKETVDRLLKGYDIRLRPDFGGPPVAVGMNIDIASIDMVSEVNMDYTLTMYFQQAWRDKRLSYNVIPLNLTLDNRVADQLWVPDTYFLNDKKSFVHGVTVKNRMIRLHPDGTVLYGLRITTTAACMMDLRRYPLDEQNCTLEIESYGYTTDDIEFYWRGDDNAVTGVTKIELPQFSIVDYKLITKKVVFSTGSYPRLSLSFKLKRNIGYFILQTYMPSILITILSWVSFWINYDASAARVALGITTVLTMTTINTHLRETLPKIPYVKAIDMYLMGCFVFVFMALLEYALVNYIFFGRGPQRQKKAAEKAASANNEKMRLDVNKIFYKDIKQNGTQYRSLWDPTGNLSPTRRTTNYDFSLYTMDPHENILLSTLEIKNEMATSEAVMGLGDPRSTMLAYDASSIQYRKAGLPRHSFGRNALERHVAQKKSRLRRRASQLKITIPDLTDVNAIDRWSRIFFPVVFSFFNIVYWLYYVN
T1 sequence (P18507 40-467 limits assumed): as the sequence (P18507 40-467 limits assumed) above

In the case of `CC(C)(O)c1cnn2c(-c3ccc(F)c(-c4c(F)cccc4C#N)c3)cnc2n1` [TPA023B, 6,2′-difluoro-5′-[3-(1-hydroxy-1-methylethyl)imidazo[1,2-b][1,2,4]triazin-7-yl]biphenyl-2-carbonitrile], the “scratching bouts, histamine-induced itch” value (histamine-induced itch) is reported as “dose-dependent reduction of scratching bouts”, the “doses at which chloroquine-induced scratching behavior was reduced” value (chloroquine-induced itch [1]) is reported as 0.03 mg/kg and the “antipruritic action in HRRR mice” value [2] is reported as “completely lost its antipruritic action”. The “tolerance development to the antipruritic effects” value ([3]; 1 mg/kg i.p. for nine consecutive days, d/d vs v/d) was “exclude tolerance development”, the “scratching bouts directed at the nape of the neck vs vehicle” value ([3]; 1 mg/kg i.p. on day 18, 15 to 210 min after injection) was “significant reduction in scratching bouts” and the “scratching bouts on day 28 vs vehicle, independent of pretreatment” value ([3]; 1 mg/kg i.p. on day 28 after vehicle or 1 mg/kg once daily for nine consecutive days) was “significant reduction in scratching bouts”. For the same molecule, the “locomotor activity in the open field test” value (locomotor activity; 1 and 3 mg/kg p.o.) was “increased locomotor activity”, the sedative effects (locomotor activity; doses up to 3 mg/kg (p.o.)) was “did not show sedative effects” and the “activity in open field arena vs vehicle” value (locomotor activity; per oral 10 mg/kg and 30 mg/kg, recorded 1-2 h after injection) was “significant increase in activity”. For the same molecule, the “muscle relaxation in the horizontal wire test” value (muscle relaxation) was “did not cause muscle relaxation”, the “motor coordination in the rotarod assay” value (motor coordination) was “did not reduce motor coordination” and the “potentiation of GABA-induced currents” value (α1 GABAARs) was “did not potentiate GABA-induced currents”. The “activation of GABAARs in the absence of GABA” value (GABAARs) was “did not activate”, the “positive allosteric modulation of H→R point-mutated α2GABAARs” value [4] was “abolished” and the “antipruritic action after intrathecal injection (biting time, scratching bouts 0-10 min)” value (chloroquine-induced itch [5]) was “antipruritic action”. The “biting responses, hoxB8-α2−/− mice vs global α2R/R mice” value (α2GABAARs) was “No significant difference” and the “biting responses in treated mice compared between genotypes” value (α2GABAARs; hoxB8-α2−/−, α2fl/fl and α2 (H→R) mice) was “differed significantly between genotypes”.
